For seven molecules, ORAC results are on record in patent publication US20230346678A1, “TOPICAL COMPOSITIONS CONTAINING VITAMIN C” (priority 2022, published 2023).

The experiment can be described thus: Oxygen radical absorbance capacity (ORAC) assay. Type of experiment: biochemical. Here is the method:
The combined anti-oxidant effects of combinations of ascorbic acid with various other known anti-oxidants was tested using the oxygen radical absorbance capacity (ORAC) assay according to the method described by Ou B, Hampsch Woodill M, Prior R. L. Development and validation of an improved oxygen radical absorbance capacity assay using fluorescein as the fluorescent probe. J Agric Food Chem. 2001, 49:4619 (using a slightly different ex/em wavelength readout and a narrower range of Trolox standards). This assay measures the ability of anti-oxidant “chain breakers” to inhibit the decline in disodium fluorescein (FL) fluorescence that is induced by the peroxyl radical generator, 2′,2′-Azobis (2-amidinopropane) dihydrochloride (AAPH). Distilled water was used as the negative control. Trolox (6-hydroxy-2,5,7,8-tetramethylchroman-2-carboxylic acid, a water-soluble analog of vitamin E sold by Hoffman-LaRoche having antioxidant properties) was used as the positive control.
The final ORAC values were calculated from the regression equation of net areas under the FL decay curve using a formula where Area Under the Curve (AUC)=1+(Point 1+Point 2+Point 3+ . . . +Point 15)/Point 1. The Trolox standards were then plotted as micromoles over AUC. The samples were solved using their AUC yielding the values in micromole (μmol) Trolox equivalent (TE) per ml. Applied BioSystems Cytofluor 4000 fluorometer & software was used for quantification. ORAC values of the test materials were expressed in μmoles TE/ml (TE=Trolox Equivalents).
All ingredients were stored at room temperature and then diluted with distilled water into aqueous stock solutions for testing. Further dilutions were made in distilled water within 24 h from testing.

The mark [1] stands for this setting: second test run (second Table 3).

In the case of `O=C(O[C@@H]1Cc2c(O)cc(O)cc2O[C@@H]1c1cc(O)c(O)c(O)c1)c1cc(O)c(O)c(O)c1` [0.1% EGCG, epigallocatechin gallate], the ORAC (first test run (first Table 3)) amounted to 7 μmoles TE/ml.

`CCOC1=C(O)C(=O)O[C@@H]1[C@@H](O)CO` [0.5% Ethyl L-Ascorbic Acid, Ethyl L-Ascorbic Acid]: the ORAC (first test run (first Table 3)) turned out to be 13 μmoles TE/ml and the ORAC under setting [1] turned out to be 7 μmoles TE/ml.

As for `COc1cc(CCC(=O)CC(=O)CCc2ccc(O)c(OC)c2)ccc1O` [0.5% Tetrahydrodiferuloyl-methane, Tetrahydrodiferuloyl-methane], the ORAC (first test run (first Table 3)) stood at 4 μmoles TE/ml. For the molecule `O=C1O[C@H]([C@@H](O)CO)C([O-])=C1OP(=O)([O-])[O-].[Na+].[Na+].[Na+]` [0.5% sodium ascorbyl phosphate, sodium ascorbyl phosphate], the ORAC (first test run (first Table 3)) was 10 μmoles TE/ml. Consider `Cn1c(=O)c2c(ncn2C)n(C)c1=O` [2% caffeine, caffeine], for which the ORAC came out at 10 μmoles TE/ml (first test run (first Table 3)) and 0 μmoles TE/ml under setting [1]. Turning to `O=C1O[C@H]([C@@H](O)CO)C(O)=C1O` [10% ascorbic acid, ascorbic acid], the ORAC runs as follows: (first test run (first Table 3)) 751 μmoles TE/ml; under setting [1], 838 μmoles TE/ml.

For the molecule `Cc1c(C)c2c(c(C)c1O)CCC(C)(C(=O)O)O2` (centres unmarked) [Trolox, 6-hydroxy-2,5,7,8-tetramethylchroman-2-carboxylic acid], the ORAC (first test run, positive control) was 3940 µmol/g and the ORAC (second test run, positive control) came to 4368 µmol/g.
